# Values of other authors, collected in patent US11166974B2, “Ophthalmic solution comprising Diquafosol” (Santen Pharmaceutical Co., Ltd., priority 2012, dated 2021).
# Test system: corneal epithelium disorder of dry eye patients
# Settings: instillation of an ophthalmic solution; NPD 1
smiles,measurement,value
O=c1ccn([C@@H]2O[C@H](COP(=O)([O-])OP(=O)([O-])OP(=O)([O-])OP(=O)([O-])OC[C@H]3O[C@@H](n4ccc(=O)[nH]c4=O)[C@H](O)[C@@H]3O)[C@@H](O)[C@H]2O)c(=O)[nH]1.[Na+].[Na+].[Na+].[Na+] [diquafosol tetrasodium salt],corneal epithelium disorder of dry eye patients,improved corneal epithelium disorder
